Measured values as given in patent US10670605B2, “Cysteine reactive probes and uses thereof” (The Scripps Research Institute, priority 2015, dated 2020).
Values belong to the molecule of their own block, whether it stands above or below them.

How the values were obtained:
KDM3A C251 (Q9Y4C1) = target: T1, KDM3A C251 (Q9Y4C1) (Homo sapiens, UniProt Q9Y4C1); experiment: Competitive isoTOP-ABPP, cell lysates; type: binding; settings: for R value (DMSO/fragment): 500 μM
T1 sequence (Q9Y4C1 1-1321): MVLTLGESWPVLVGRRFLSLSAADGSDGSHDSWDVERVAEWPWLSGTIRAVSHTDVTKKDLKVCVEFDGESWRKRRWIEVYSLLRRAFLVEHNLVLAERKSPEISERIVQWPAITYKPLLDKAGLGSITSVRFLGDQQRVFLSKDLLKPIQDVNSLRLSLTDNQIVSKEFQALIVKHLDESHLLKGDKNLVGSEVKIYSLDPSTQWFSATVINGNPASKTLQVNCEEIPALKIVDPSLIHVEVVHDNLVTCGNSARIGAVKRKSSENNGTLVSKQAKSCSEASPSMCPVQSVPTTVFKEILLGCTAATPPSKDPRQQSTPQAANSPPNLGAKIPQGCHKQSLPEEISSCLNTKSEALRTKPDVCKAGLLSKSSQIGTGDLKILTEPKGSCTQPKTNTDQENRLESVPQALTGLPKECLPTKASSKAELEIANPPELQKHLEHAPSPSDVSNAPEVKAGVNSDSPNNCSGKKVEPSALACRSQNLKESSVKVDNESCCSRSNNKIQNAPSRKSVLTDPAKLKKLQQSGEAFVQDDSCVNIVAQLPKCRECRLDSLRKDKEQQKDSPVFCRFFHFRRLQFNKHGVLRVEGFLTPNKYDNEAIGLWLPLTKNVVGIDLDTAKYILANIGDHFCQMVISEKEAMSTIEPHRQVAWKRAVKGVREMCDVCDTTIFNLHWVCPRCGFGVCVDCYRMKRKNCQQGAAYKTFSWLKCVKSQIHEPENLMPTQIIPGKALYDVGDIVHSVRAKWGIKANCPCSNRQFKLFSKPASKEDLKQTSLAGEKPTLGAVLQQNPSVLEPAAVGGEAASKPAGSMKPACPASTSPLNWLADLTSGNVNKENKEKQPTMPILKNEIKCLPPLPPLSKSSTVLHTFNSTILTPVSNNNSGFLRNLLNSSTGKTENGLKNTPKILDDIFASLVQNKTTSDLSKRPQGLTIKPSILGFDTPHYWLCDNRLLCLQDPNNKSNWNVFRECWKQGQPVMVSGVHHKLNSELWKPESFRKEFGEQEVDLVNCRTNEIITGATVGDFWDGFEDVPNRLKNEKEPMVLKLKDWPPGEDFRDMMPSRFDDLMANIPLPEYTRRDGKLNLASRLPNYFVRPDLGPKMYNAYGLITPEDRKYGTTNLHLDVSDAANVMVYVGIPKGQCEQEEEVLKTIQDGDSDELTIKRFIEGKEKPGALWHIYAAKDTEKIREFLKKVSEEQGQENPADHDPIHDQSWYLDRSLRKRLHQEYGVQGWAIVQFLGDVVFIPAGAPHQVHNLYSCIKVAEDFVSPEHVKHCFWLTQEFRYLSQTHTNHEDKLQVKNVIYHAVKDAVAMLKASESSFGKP

PRMT1 (C109) = target: T2, PRMT1 (C109) (Homo sapiens, UniProt Q99873); experiment: Blockade of IA-rhodamine labeling of recombinant PRMT1 (gel-based ABPP); type: binding
T2 construct: Full length PRMT1 subcloned into pET45b (+) (Novagen) was previously generated by the Cravatt lab; inferred from Ni-NTA purification and the pET45b vector; made in house; host or cells: E. coli BL21(DE3)

[1] = target: cysteines in MDA-MB-231 and Ramos cells (Homo sapiens, UniProt Q9NZB2); experiment: Competitive isoTOP-ABPP in situ (fragment-treated cells); type: cell-based; settings: 200 μM, insitu, 231
[2] = target: cysteines in MDA-MB-231 and Ramos cells (Homo sapiens, UniProt Q15796); experiment: as above; type: cell-based; settings: 200 μM, insitu
[3] = target: cysteines in MDA-MB-231 and Ramos cells (Homo sapiens, UniProt Q13232); experiment: as above; type: cell-based; settings: 200 μM, insitu
[4] = target: cysteines in MDA-MB-231 and Ramos cells (Homo sapiens, UniProt A2A288); experiment: as above; type: cell-based; settings: 200 μM, insitu, ramos
[5] = target: cysteines in MDA-MB-231 and Ramos cells (Homo sapiens, UniProt Q9P2X3); experiment: as above; type: cell-based; settings: 200 μM, insitu, 231
cysteines in MDA-MB-231 and Ramos cells (Homo sapiens, UniProt Q9P2X3), sequence (Q9P2X3 whole entry): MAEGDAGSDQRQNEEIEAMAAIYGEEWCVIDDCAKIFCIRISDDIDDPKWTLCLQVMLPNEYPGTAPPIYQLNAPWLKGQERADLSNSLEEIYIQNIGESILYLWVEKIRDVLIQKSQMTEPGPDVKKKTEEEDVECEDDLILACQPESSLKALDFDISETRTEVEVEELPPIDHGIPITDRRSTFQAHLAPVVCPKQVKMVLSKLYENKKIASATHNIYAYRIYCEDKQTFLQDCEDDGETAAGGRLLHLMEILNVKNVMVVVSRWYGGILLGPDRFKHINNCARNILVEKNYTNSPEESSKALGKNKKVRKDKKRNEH

cysteines in MDA-MB-231 and Ramos cells (Homo sapiens, UniProt Q15796), sequence (Q15796 whole entry): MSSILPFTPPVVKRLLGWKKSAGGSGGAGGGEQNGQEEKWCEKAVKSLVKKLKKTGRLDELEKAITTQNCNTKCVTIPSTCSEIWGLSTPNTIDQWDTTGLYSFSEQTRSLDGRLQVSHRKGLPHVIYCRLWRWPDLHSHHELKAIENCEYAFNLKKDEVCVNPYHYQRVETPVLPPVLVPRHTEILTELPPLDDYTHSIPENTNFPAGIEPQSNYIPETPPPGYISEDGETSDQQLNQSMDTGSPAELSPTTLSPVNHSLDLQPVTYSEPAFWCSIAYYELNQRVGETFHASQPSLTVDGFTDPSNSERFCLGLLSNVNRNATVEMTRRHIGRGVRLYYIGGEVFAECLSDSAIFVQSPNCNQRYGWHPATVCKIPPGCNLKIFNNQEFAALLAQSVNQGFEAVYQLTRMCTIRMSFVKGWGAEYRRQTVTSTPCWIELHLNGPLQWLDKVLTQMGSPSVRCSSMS
cysteines in MDA-MB-231 and Ramos cells (Homo sapiens, UniProt Q9NZB2), sequence (Q9NZB2 whole entry, the tested form may be a part): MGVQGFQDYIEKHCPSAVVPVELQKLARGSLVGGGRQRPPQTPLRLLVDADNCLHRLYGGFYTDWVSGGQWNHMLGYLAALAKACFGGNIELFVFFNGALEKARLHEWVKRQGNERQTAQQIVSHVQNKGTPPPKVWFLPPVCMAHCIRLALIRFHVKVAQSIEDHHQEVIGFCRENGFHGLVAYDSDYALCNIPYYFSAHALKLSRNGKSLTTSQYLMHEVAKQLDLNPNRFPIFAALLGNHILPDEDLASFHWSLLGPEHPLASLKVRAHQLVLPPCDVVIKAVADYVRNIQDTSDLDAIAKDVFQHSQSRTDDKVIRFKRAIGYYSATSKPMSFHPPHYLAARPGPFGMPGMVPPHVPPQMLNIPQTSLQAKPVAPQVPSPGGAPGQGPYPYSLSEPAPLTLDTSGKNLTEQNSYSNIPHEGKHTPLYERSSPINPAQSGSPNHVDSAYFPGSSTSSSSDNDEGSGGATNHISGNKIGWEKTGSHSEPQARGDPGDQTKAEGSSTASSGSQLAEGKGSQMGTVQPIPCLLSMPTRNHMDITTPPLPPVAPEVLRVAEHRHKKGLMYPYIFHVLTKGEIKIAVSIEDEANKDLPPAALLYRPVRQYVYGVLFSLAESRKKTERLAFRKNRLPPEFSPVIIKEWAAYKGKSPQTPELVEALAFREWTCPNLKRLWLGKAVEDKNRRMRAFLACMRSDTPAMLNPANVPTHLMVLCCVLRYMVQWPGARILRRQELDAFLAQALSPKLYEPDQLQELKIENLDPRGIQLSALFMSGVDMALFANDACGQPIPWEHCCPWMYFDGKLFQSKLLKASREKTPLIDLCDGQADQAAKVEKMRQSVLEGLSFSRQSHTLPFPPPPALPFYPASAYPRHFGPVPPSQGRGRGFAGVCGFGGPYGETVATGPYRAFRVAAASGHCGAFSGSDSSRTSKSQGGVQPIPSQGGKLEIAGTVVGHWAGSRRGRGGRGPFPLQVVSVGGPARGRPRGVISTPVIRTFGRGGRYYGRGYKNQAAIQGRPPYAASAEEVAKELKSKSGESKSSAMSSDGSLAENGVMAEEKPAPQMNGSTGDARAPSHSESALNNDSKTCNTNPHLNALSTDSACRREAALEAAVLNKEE
cysteines in MDA-MB-231 and Ramos cells (Homo sapiens, UniProt Q13232), sequence (Q13232 whole entry): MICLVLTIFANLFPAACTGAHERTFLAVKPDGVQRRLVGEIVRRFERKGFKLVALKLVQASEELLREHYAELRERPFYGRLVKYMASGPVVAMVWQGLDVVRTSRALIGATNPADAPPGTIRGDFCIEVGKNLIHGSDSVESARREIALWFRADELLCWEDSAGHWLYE
cysteines in MDA-MB-231 and Ramos cells (Homo sapiens, UniProt A2A288), sequence (A2A288 whole entry): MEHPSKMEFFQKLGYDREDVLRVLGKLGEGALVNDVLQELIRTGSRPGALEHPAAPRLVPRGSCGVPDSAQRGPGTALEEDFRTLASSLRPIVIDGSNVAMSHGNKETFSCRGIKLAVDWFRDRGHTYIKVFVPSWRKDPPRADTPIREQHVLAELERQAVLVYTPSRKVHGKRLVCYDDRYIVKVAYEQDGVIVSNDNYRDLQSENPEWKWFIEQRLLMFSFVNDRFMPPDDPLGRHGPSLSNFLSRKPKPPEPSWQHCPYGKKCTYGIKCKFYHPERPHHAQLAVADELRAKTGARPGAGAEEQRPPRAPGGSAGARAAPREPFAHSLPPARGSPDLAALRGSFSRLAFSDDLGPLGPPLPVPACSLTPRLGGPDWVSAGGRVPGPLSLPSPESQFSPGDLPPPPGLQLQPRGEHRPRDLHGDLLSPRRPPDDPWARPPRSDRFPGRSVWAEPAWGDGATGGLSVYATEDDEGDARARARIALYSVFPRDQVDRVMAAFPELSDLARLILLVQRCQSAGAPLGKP
T2 sequence (Q99873 11-371 limits assumed): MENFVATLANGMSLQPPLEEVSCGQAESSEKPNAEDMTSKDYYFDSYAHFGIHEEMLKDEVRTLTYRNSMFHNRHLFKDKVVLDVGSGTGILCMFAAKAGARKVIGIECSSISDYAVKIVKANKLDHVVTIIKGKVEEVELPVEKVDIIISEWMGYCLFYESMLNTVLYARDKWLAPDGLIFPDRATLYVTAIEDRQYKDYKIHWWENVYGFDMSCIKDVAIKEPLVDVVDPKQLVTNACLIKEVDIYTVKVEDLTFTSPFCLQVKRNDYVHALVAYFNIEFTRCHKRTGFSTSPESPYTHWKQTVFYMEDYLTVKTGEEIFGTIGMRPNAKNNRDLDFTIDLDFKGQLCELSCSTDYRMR

R value (DMSO/fragment) (KDM3A C251 (Q9Y4C1); in vitro, MDA-MB-231): 4.4
R value (DMSO/fragment) (KDM3A C251 (Q9Y4C1); invitro, ramos): 4.0
blockade of IA-rhodamine labeling of PRMT1 (in words) (PRMT1 (C109); recombinant WT-PRMT1 in cell lysate): inactive
SMILES: O=C(CCl)Nc1cc(C(F)(F)F)cc(C(F)(F)F)c1 [compound 3]

IC50 (PRMT1 (C109); recombinant WT-PRMT1 1 μM in cell lysate, fragment 1 h): 36 µM
SMILES: Cn1cc(S(=O)(=O)N2CCOCC2)cc1C(=O)NC(=O)CCl [compound 11]

isoTOP-ABPP ratio, cysteine Q9NZB2_C531 [1]: 20.0
SMILES: O=C(CCl)NC(=O)NC12CC3CC(CC(C3)C1)C2 [compound 12]

isoTOP-ABPP ratio, cysteine Q9NZB2_C531 [1]: 1.6
isoTOP-ABPP ratio, cysteine Q15796_C81 [2]; 231: 1.3
isoTOP-ABPP ratio (reactivity profile), Q9Y4C1_C251 (KDM3A C251 (Q9Y4C1); 500 μm in-vitro ramos_231): 0.7
SMILES: O=C(CCl)NC12CC3CC(CC(C3)C1)C2 [compound 21]

isoTOP-ABPP ratio (reactivity profile), Q9Y4C1_C251 (KDM3A C251 (Q9Y4C1); 500 μm in-vitro ramos): 1.3
SMILES: CC(Br)C(=O)Nc1cc(C(F)(F)F)cc(C(F)(F)F)c1 (centres unmarked) [compound 24]

isoTOP-ABPP ratio Q13232_C158 ([3]; ramos): 1.5
isoTOP-ABPP ratio Q15796_C81 ([2]; ramos): 1.3
isoTOP-ABPP ratio A2A288_C367 [4]: 1.3
SMILES: O=C(CCl)N1CCN(CC(=O)N2CCOCC2)CC1 [compound 29]

isoTOP-ABPP ratio A2A288_C367 [4]: 1.9
isoTOP-ABPP ratio Q9P2X3_C195 [5]: 0.5
SMILES: C=CC(=O)N(Cc1cccnc1)c1cc(C(F)(F)F)cc(C(F)(F)F)c1 [compound 31]

isoTOP-ABPP ratio Q13232_C158 [3]; 231: 8.8
isoTOP-ABPP ratio Q9P2X3_C195 [5]: 20.0
SMILES: CC1CCc2ccccc2N1C(=O)CCl (centres unmarked) [compound 45]

isoTOP-ABPP reactivity profile ratio, Q9Y4C1_C251 (KDM3A C251 (Q9Y4C1); 500 μm, in-vitro_ramos_231): 1.0
SMILES: C=CC(=O)N(c1ccccc1)C1CCCCC1 [compound 46]
